Patent publication US7045600B2, “Modification of collagenous materials and medical treatment, diagnosis and monitoring of fibrotic conditions” (Nederlandse Organisatie voor …, priority 1999, dated 2006)

Legend:
PLOD2B mRNA [1] = experiment: PLOD2B mRNA levels by real-time PCR in TGF-β-treated human skin fibroblasts; format: cell-based; conditions: for increase of PLOD2B mRNA levels: human skin fibroblasts, 1, 5 or 10 nM, 50 hours, versus untreated (FIG. 9)
Description: Human skin fibroblasts were cultured in 25 cm^2 flasks in DMEM (Gibco) supplemented with 10% FBS in 5% CO2. At near confluency the fibroblasts and myofibroblasts were incubated for 50 hours in medium containing 1, 5 or 10 nM human recombinant TGF-β1, -β2 or -β3. As a control, human skin fibroblasts were incubated for 50 hours in medium without the addition of TGF-β. At the end of the incubation period, the cells were washed with PBS and lysed with 600 μl RLT-buffer (RNeasy kit, Qiagen). RNA was isolated following the manufacturers protocol and subsequently reverse transcribed into cDNA (first strand cDNA synthesis kit, Roche Molecular Biochemicals). The levels of PLOD2B mRNA in the untreated and TGF-β treated cells were quantified using real-time PCR as described in example 8.
RNA, obtained from cultured human skin fibroblasts and cultured human myofibroblast, was isolated using the RNeasy kit (Qiagen). To remove any genomic DNA in the RNA sample, a Dnase treatment was carried out, using RQ1 Rnase-free Dnase (Promega). RNA was then reverse transcripted into cDNA and subjected to real time PCR amplification.
Real time PCR amplification of PLOD2 and β2-microglobulin was performed, using specific primers (PLOD2 forward primer: 5′ […] 3′ (SEQ ID NO:48) PLOD2 reverse primer: 5′ […] 3′ (SEQ ID NO:49)β2-microglobulin forward primer; 5′ […] 3 (SEQ ID NO:50)β32-microglobulin reverse primer 5′ […] 3′) (SEQ ID NO:51) and specific molecular beacons PLOD2: 5′ FAM-cgtgcg[…] (SEQ ID NO:52) cgcacg-DABCYL 3 ′; β2-microglobulin: 5′HEX-cgtgc[…] (SEQ ID NO:53) gcacg-DABCYL 3′). PLOD2 was amplified in a multiplex PCR together with β2-microglobulin in a total reaction volume of 25μl, containing 1×PCR buffer (Applied Biosystems), 0.4 mM of each dNTP, 3.5 mM Mg^2+, 250 nM of each target primer, 100 nM of each primer for μ2microglobulin and 1 unit Amplitaq Gold polymerase (Applied Biosystems). PCR was performed in a ABI PRISM® 7700 Sequence Detection System and consisted of a 5 minute interval at 95° C., followed by 40 cycles of 95° C. for 30 seconds, 56° C. for 40 seconds and 72° C. for 30 seconds. Data was analysed using sequence detector V1.7 software.

[2] = tested on: lysyl hydroxylation level of the telopeptides (pyridinoline cross-links) in chondrocytes; experiment: Pyridinoline (HP and LP) cross-links in collagen from calf chondrocytes cultured in alginate beads with minoxidil; format: cell-based, calves; conditions: culture period of 20–50 days
Description: Chondrocytes from the metacarpophalangeal joint of calves (12–14 months old, local slaughterhouse) were isolated by collagenase digestion: cartilage slices were minced and digested overnight at 37° C. in 0.14% (w/v) collagenase (Worthington CLS2) in Dulbecco's modified Eagle's medium (DMEM). After filtration of the suspension, cells were washed suspended in 1.2% (w/v) alginate (Keltone LVCR) in 0.9% NaCI at a density of 4×10^6 cells/ml, which was passed dropwise through a 22-gauge needle into 102 mM CaCl2. After 10 min of polymerization, beads were washed in 0.9% (w/v) NaCl (three times) and finally in complete medium: DMEM-Glutamax (Gibco BRL) supplemented with 100 U/ml of penicillin/streptomycin, 10% (v/v) foetal calf serum and 50 μg/ml ascorbic acid. The cells were cultured at 10 beads per 0.5 ml medium in a humid atmosphere of 5% CO2 in air at 37° C.; the medium was refreshed twice weekly. Minoxidil was dissolved in complete medium and added to the culture after 7 days of preculture under control conditions. Harvested beads were washed with 0.9% NaCl containing 10 mM CaCl2 and hydrolyzed in 900 μl 6 M HCl at 108° C. for 20–24 h. […] Based on hydroxyproline levels, amounts of collagen were calculated, assuming 300 hydroxyproline residues/triple helix. […] Crosslinks were expressed as amount of residues per collagen molecule.

PLOD2B mRNA [3] = experiment: PLOD2B mRNA levels by real-time PCR in minoxidil-treated human skin fibroblasts and myofibroblasts; format: cell-based; conditions: 1 mM minoxidil, 41 hours, versus untreated (FIG. 8)
Description: To substantiate that minoxidil suppresses the expression of PLOD2, human skin fibroblasts and myofibroblasts were cultured in 25 cm^2 flasks in DMEM (Gibco) supplemented with 10% FBS in 5% CO2. At near confluency the fibroblasts and myofibroblasts were incubated for 41 hours in medium containing 1 mM minoxidil. Minoxidil was dissolved at room temperature in medium with 10% FBS for 8 hours which was filtered prior to use. As a control both cell types were incubated for 41 hours in medium without minoxidil. At the end of the incubation period, the cells were washed with PBS and lysed with 600 μl RLT-buffer (RNeasy kit, Qiagen). RNA was isolated following the manufacturers protocol and subsequently reverse transcribed into cDNA (first strand cDNA synthesis kit, Roche Molecular Biochemicals). The levels of PLOD2B mRNA in the untreated and minoxidil-treated cells were quantified using real-time PCR as described in example 8. […]
Real time PCR amplification of PLOD2 and β2-microglobulin was performed, using specific primers (PLOD2 forward primer: 5′ […] 3′ (SEQ ID NO:48) PLOD2 reverse primer: 5′ […] 3′ (SEQ ID NO:49)β2-microglobulin forward primer; 5′ […] 3 (SEQ ID NO:50)β32-microglobulin reverse primer 5′ […] 3′) (SEQ ID NO:51) and specific molecular beacons PLOD2: 5′ FAM-cgtgcg[…] […] Data was analysed using sequence detector V1.7 software.

[4] = tested on: helical lysyl hydroxylase; conditions: cited from earlier work

Molecule: TGF-β
- expression of PLOD2B (FIG. 9 legend, in words) (PLOD2B mRNA [1]; fibroblasts, TGF-β added to the culture medium): increased

Molecule: Nc1cc(N2CCCCC2)nc(N)[n+]1[O-] [minoxidil]
- amount of pyridinolines (HP and LP), mean ([2]; alginate beads cultured with 0.3 mM minoxidil): 0.38 residues/collagen molecule
- amount of pyridinolines (HP and LP), mean ([2]; alginate beads cultured with 1.0 mM or 2.0 mM minoxidil): around 0.15 residues/collagen molecule
- reduction of PLOD2B mRNA levels (PLOD2B mRNA [3]; human myofibroblasts): about 15 fold
- reduction of PLOD2B mRNA levels (PLOD2B mRNA [3]; human skin fibroblasts): 4 fold

Molecule: TGF-β1: human recombinant TGF-β1
- increase of PLOD2B mRNA levels (PLOD2B mRNA [1]): about 20 fold

Molecule: CCOC(=O)CC(SP(=O)(OC)OC)C(=O)OCC (stereo not shown) [malaoxon]
- helical lysyl hydroxylase inhibition [4]: inhibit

Molecule: CCOC(=O)CC(SP(=S)(OC)OC)C(=O)OCC (stereo not shown) [malathion]
- helical lysyl hydroxylase inhibition [4]: inhibit

B1: TGF-β3: human recombinant TGF-β3 (protein, UniProt P10600 301-412, looked up)
Transforming growth factor …: ALDTNYCFRNLEENCCVRPLYIDFRQDLGWKWVHEPKGYYANFCSGPCPYLRSADTTHSTVLGLYNTLNPEASASPCCVPQDLEPLTILYYVGRTPKVEQLSNMVVKSCKCS
- increase of PLOD2B mRNA levels (PLOD2B mRNA [1]): about 20 fold

B2: TGF-β2: human recombinant TGF-β2 (protein, UniProt P61812 303-414, looked up)
Transforming growth factor …: ALDAAYCFRNVQDNCCLRPLYIDFKRDLGWKWIHEPKGYNANFCAGACPYLWSSDTQHSRVLSLYNTINPEASASPCCVSQDLEPLTILYYIGKTPKIEQLSNMIVKSCKCS
- increase of PLOD2B mRNA levels (PLOD2B mRNA [1]): about 20 fold
